From US4997829A, “Penem compounds, and use thereof” (Suntory Limited, priority 1985, dated 1991)

Legend:
Assay in all cases: Minimum inhibitory concentration (MIC), agar plate dilution method
Type in all cases: cell-based
Ent. cloacae 963 = conditions: Enterobacter cloacae, 963; 10^6 CFU inoculated, 37° C., 18 hours
Experimental: (§1) With regard to the novel compounds obtained according to this invention and the compounds of Reference Examples, their minimum inhibitory concentrations (MIC) were determined by the agar plate dilution method in accordance with the MIC measuring standard method of The Chemotherapeutic Society of Japan, whereby 10^6 colony forming units were inoculated and the minimal concentration to inhibit the microbial growth after inclubation at 37° C. for 18 hours were determined, as shown as μg/ml in Table.

B. fragilis V-280-1 = conditions: Bacteroides fragilis, V2801; 10^6 CFU inoculated, 37° C., 18 hours
Experimental: as §1

S. aureus FAD209P JC-1 = conditions: Staphylococcus aureus, FAD209PJC1; 10^6 CFU inoculated, 37° C., 18 hours
Experimental: as §1

B. fragilis GM7000 = conditions: Bacteroides fragilis, GM7000; 10^6 CFU inoculated, 37° C., 18 hours
Experimental: as §1

Pr. morganii IFO3848 = conditions: Morganella morganii, IFO3848; 10^6 CFU inoculated, 37° C., 18 hours
Experimental: as §1

M. luteus ATCC9341 = conditions: Micrococcus luteus, ATCC9341; 10^6 CFU inoculated, 37° C., 18 hours
Experimental: as §1

Al. fecalis IFO13111 = conditions: 10^6 CFU inoculated, 37° C., 18 hours
Experimental: as §1

Ser. marcescens IMA 1136 = conditions: Serratia marcescens, IMA1136; 10^6 CFU inoculated, 37° C., 18 hours
Experimental: as §1

F. varium ATCC8501 = conditions: Fusobacterium varium, ATCC8501; 10^6 CFU inoculated, 37° C., 18 hours
Experimental: as §1

E. coli W3630/Rms212 = conditions: Escherichia coli, W3630/RMS212, 18 h, read-out: minimum inhibitory concentration (MIC)
Experimental: as §1

Pr. vulgaris GN7919 = conditions: Proteus vulgaris, GN7919; 10^6 CFU inoculated, 37° C., 18 hours
Experimental: as §1

E. coli NIHI JC-2 = conditions: Escherichia coli, NIHIJC2; 10^6 CFU inoculated, 37° C., 18 hours
Experimental: as §1

K. pneumoniae PC1602 = conditions: Klebsiella pneumoniae, PC1602; 10^6 CFU inoculated, 37° C., 18 hours
Experimental: as §1

E. coli W3630/Rms213 = conditions: Escherichia coli, W3630/RMS213, 18 h, read-out: minimum inhibitory concentration (MIC)
Experimental: as §1

SMILES | MIC (Ent. cloacae 963) [µg/mL] | MIC (B. fragilis V-280-1) [µg/mL] | MIC (S. aureus FAD209P JC-1) [µg/mL] | MIC (B. fragilis GM7000) [µg/mL] | MIC (Pr. morganii IFO3848) [µg/mL] | MIC (M. luteus ATCC9341) [µg/mL] | MIC (Al. fecalis IFO13111) [µg/mL] | MIC (Ser. marcescens IMA 1136) [µg/mL] | MIC (F. varium ATCC8501) [µg/mL] | MIC (E. coli W3630/Rms212) [µg/mL] | MIC (Pr. vulgaris GN7919) [µg/mL] | MIC (E. coli NIHI JC-2) [µg/mL] | MIC (K. pneumoniae PC1602) [µg/mL] | MIC (E. coli W3630/Rms213) [µg/mL]
C[C@@H](O)[C@H]1C(=O)N2C(C(=O)O)=C([C@@H]3CCOC3)S[C@H]12 [SUN 4726, Potassium (1'R, 3"R, 5R, 6S)-6-(1'-hydroxyethyl)-2-(3"-tetrahydrofuranyl)penem-3-carboxylate] | 6.25 | 0.05 | 0.05 | 0.05 | 12.5 | 0.05 | 1.56 | 12.5 | 0.1 | 3.13 | 1.56 | 1.56 | 0.05 | 1.56
C[C@@H](O)[C@H]1C(=O)N2C(C(=O)O)=C([C@@H]3COCCO3)S[C@H]12 [SUN 4770, Potassium (1'R, 2"S, 5R, 6S)-6-(1'-hydroxyethyl)-2-(2"-para-dioxanyl)penem-3-carboxylate] | 25 | 0.39 | 0.2 | 0.39 | 25 | 0.1 | 6.25 | 50 | 3.13 | 12.5 | 6.25 | 1.56 | 0.78 | 12.5
C[C@@H](O)[C@H]1C(=O)N2C(C(=O)O)=C(c3ccoc3)S[C@H]12 (relative stereo) [SUN 4196, Potassium (1'R, 5R, 6S and 1'S, 5S, 6R)-2-(3"-furanyl)-6(1'-hydroxyethyl)penem-3-carboxylate, reference compound] | 25 | 12.5 | 0.2 | 0.78 | 12.5 | 0.2 | 12.5 | 25 | 6.25 | 25 | 3.13 | 1.25 | 3.13 | 25
C[C@@H](O)[C@H]1C(=O)N2C(C(=O)O)=C([C@H]3CCC(=O)O3)S[C@H]12 [SUN 4374, Potassium (1'R, 2"R, 5R, 6S)-6-(1'-hydroxyethyl)-2[2"-(5"-oxo)oxolanyl]penem-3-carboxylate] | 3.13 |  | 0.1 |  | 3.13 | 0.1 | 1.56 | 3.13 |  | 1.56 | 0.78 | 1.56 | 0.39 | 0.78
C[C@@H](O)[C@H]1C(=O)N2C(C(=O)O)=C(Cc3ccsc3)S[C@H]12 (relative stereo) [SUN 3514, Potassium (1'R, 5R, 6S and 1'S, 5S, 6R)-6-(1'-hydroxyethyl)-2-(3"-thiophenemethyl)penem-3-carboxylate, reference compound] | > 50 | 0.39 | 0.05 | 0.39 | 8.13 | 0.2 | 0.39 | 50 | 0.39 | 50 | 6.25 | > 50 | 0.78 | 25
CCOCC1=C(C(=O)O)N2C(=O)[C@H]([C@@H](C)O)[C@H]2S1 (relative stereo) [SUN 3519, Potassium (1'R, 5R, 6S and 1's, 5S, 6R)-2-(ethoxymethyl)-6-(1'-hydroxyethyl)-penem-3-carboxylate, reference compound] | 12.5 | 0.1 | 0.2 | 0.1 | 6.25 | 0.2 | 1.56 | 12.5 | 0.39 | 6.25 | 1.56 | 6.25 | 1.56 | 6.25
C[C@@H](O)[C@H]1C(=O)N2C(C(=O)O)=C([C@@H]3CCCO3)S[C@H]12 (relative stereo) [SUN 4118, potassium (1'R, 2"S, 5R, 6S and 1'S, 2"R, 5S, 6R)-6-(1'-hydroxyethyl)-2-(2"-tetrahydrofuranyl)penem-3-carboxylate] | 25 | 0.2 | 0.1 |  |  | 0.05 | 1.56 | 25 | 1.56 | 12.5 | 1.56 |  |  | 12.5
C[C@@H](O)[C@H]1C(=O)N2C(C(=O)O)=C([C@@H]3CCCO3)S[C@H]12 [SUN 4434, Potassium (1'R, 2"S, 5R, 6S)-6-(1'-hydroxyethyl)-2-(2"-tetrahydofuranyl)penem-3-carboxylate] | 12.5 | 0.2 | 0.05 |  |  | < 0.025 | 3.13 | 25 | 1.56 | 12.5 | 0.78 |  |  | 6.25
C[C@@H](O)[C@H]1C(=O)N2C(C(=O)O)=C(c3ccco3)S[C@H]12 (relative stereo) [SUN 4194, Potassium (1'R, 5R, 6S and 1',S, 5S, 6R)-2-(2"-furanyl)-6-(1'-hydroxyethyl)penem-3-carboxylate, reference compound] | 25 | 6.25 | 0.39 | 0.39 | 12.5 | 0.2 | 6.25 | 25 | 6.25 | 25 | 3.13 | 25 | 3.13 | 25
CCSCC1=C(C(=O)O)N2C(=O)[C@H]([C@@H](C)O)[C@H]2S1 (relative stereo) [SUN 3515, Potassium (1'R, 5R, 6S and 1'S, 5S, 6R)-2-ethylmethylthio)-6-(1'-hydroxyethyl)-penem-3-carboxylate, reference compound] | 50 | 0.2 | 0.1 | 0.1 | 3.13 | 0.2 | 0.78 | 25 | 0.39 | 25 | 1.56 | 25 | 0.78 | 12.5
C[C@@H](O)[C@H]1C(=O)N2C(C(=O)O)=C(C3CCCO3)S[C@H]12 (relative stereo) [SUN 4068, potassium (1'R, 2"R, 5R, 6S and 1'R, 2"S, 5R, 6S and 1'S, 2"R, 5S, 6R and 1'S, 2"S, 5S, 6R)-6-(1'-hydroxyethyl)-2-(2"-tetrahydrofuranyl)penem-3-carboxylate] | 6.25 | 0.2 | 0.1 | 0.05 | 3.13 | 0.1 | 1.56 | 6.25 | 0.78 | 3.13 | 0.78 | 1.56 | 0.39 | 3.13
COCC1=C(C(=O)O)N2C(=O)[C@H]([C@@H](C)O)[C@H]2S1 (relative stereo) [SUN 3585, Potassium (1'R, 5R, 6S and 1'S, 5S, 6R)-6-(1-hydroxyethyl)-2-(methoxymethyl)penem-3-carboxylate, reference compound] | 3.13 | 0.1 | 0.1 | 0.05 | 6.25 | 0.1 | 1.56 | 3.13 | 0.78 | 0.78 | 0.78 | 0.78 | 0.78 | 0.78
C[C@@H](O)[C@H]1C(=O)N2C(C(=O)O)=C([C@H]3CCCCO3)S[C@H]12 [SUN 4741, Potassium (1'R, 2"R, 5R, 6S)-6-(1'-hydroxyethyl)-2-(2"-tetrahydropyranyl)penem-3-carboxylate] | 25 | 0.1 | 0.1 | 0.1 | 3.13 | 0.1 | 0.78 | 25 | 0.39 | 12.5 | 3.13 | 6.25 | 0.1 | 6.25
